Source: PubChem BioAssay (NCI)
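Exposure lasted 48 hours, with cells grown in 96-well plates and compounds tested at five concentrations. TGI marks complete inhibition of growth.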

Experiments:
Experiment in all cases: NCI tumour cell line growth inhibition, 48 h
A498 renal = test system: A498 renal
A549 NSCLC = test system: A549 NSCLC
CAKI-1 renal = test system: CAKI-1 renal
CCRF-CEM leukemia = test system: CCRF-CEM leukemia
COLO 205 colon = test system: COLO 205 colon
DLD-1 colon = test system: DLD-1 colon
DMS 114 small cell lung = test system: DMS 114 small cell lung
DMS 273 small cell lung = test system: DMS 273 small cell lung
HCC-2998 colon = test system: HCC-2998 colon
HCT-116 colon = test system: HCT-116 colon
HCT-15 colon = test system: HCT-15 colon
HL-60(TB) leukemia = test system: HL-60(TB) leukemia
HOP-18 NSCLC = test system: HOP-18 NSCLC
HOP-62 NSCLC = test system: HOP-62 NSCLC
HOP-92 NSCLC = test system: HOP-92 NSCLC
HT29 colon = test system: HT29 colon
IGROV1 ovarian = test system: IGROV1 ovarian
K-562 leukemia = test system: K-562 leukemia
KM12 colon = test system: KM12 colon
KM20L2 colon = test system: KM20L2 colon
LOX IMVI melanoma = test system: LOX IMVI melanoma
M19-MEL melanoma = test system: M19-MEL melanoma
MALME-3M melanoma = test system: MALME-3M melanoma
MCF7 breast = test system: MCF7 breast
MOLT-4 leukemia = test system: MOLT-4 leukemia
NCI-H226 lung = test system: NCI-H226 lung
NCI-H23 lung = test system: NCI-H23 lung
NCI-H460 lung = test system: NCI-H460 lung
NCI-H522 lung = test system: NCI-H522 lung
NCI/ADR-RES ovarian = test system: NCI/ADR-RES ovarian
OVCAR-3 ovarian = test system: OVCAR-3 ovarian
OVCAR-4 ovarian = test system: OVCAR-4 ovarian
OVCAR-5 ovarian = test system: OVCAR-5 ovarian
OVCAR-8 ovarian = test system: OVCAR-8 ovarian
P388 leukemia = test system: P388 leukemia
P388/ADR leukemia = test system: P388/ADR leukemia
RPMI-8226 leukemia = test system: RPMI-8226 leukemia
RXF 393 renal = test system: RXF 393 renal
SF-268 CNS = test system: SF-268 CNS
SF-295 CNS = test system: SF-295 CNS
SF-539 CNS = test system: SF-539 CNS
SK-MEL-2 melanoma = test system: SK-MEL-2 melanoma
SK-MEL-28 melanoma = test system: SK-MEL-28 melanoma
SK-MEL-5 melanoma = test system: SK-MEL-5 melanoma
SK-OV-3 ovarian = test system: SK-OV-3 ovarian
SN12C renal = test system: SN12C renal
SN12K1 renal = test system: SN12K1 renal
SNB-19 CNS = test system: SNB-19 CNS
SNB-75 CNS = test system: SNB-75 CNS
SNB-78 CNS = test system: SNB-78 CNS
SW-620 colon = test system: SW-620 colon
U251 CNS = test system: U251 CNS
UACC-257 melanoma = test system: UACC-257 melanoma
UACC-62 melanoma = test system: UACC-62 melanoma
UO-31 renal = test system: UO-31 renal
XF 498 CNS = test system: XF 498 CNS

Structure (SMILES): CN(C)CCNC(=O)c1cccc2ccc(-c3ccc(F)cc3)nc12
- TGI (A498 renal): 17.5 µM
- TGI (A549 NSCLC): 17.9 µM
- TGI (CAKI-1 renal): 15.3 µM
- TGI (CCRF-CEM leukemia): 15.8 µM
- TGI (COLO 205 colon): 10.9 µM
- TGI (DLD-1 colon): 17.9 µM
- TGI (DMS 114 small cell lung): 17.8 µM
- TGI (DMS 273 small cell lung): 11.8 µM
- TGI (HCC-2998 colon): 19.3 µM
- TGI (HCT-116 colon): 13.3 µM
- TGI (HCT-15 colon): 16.1 µM
- TGI (HL-60(TB) leukemia): 7.49 µM
- TGI (HOP-18 NSCLC): 54.1 µM
- TGI (HOP-62 NSCLC): 27.8 µM
- TGI (HOP-92 NSCLC): 18 µM
- TGI (HT29 colon): 17 µM
- TGI (IGROV1 ovarian): 20.3 µM
- TGI (K-562 leukemia): 12 µM
- TGI (KM12 colon): 33.4 µM
- TGI (KM20L2 colon): 20.4 µM
- TGI (LOX IMVI melanoma): 9.88 µM
- TGI (M19-MEL melanoma): 15.9 µM
- TGI (MALME-3M melanoma): 13.6 µM
- TGI (MCF7 breast): 20.5 µM
- TGI (MOLT-4 leukemia): 7.03 µM
- TGI (NCI-H226 lung): 11.6 µM
- TGI (NCI-H23 lung): 17.1 µM
- TGI (NCI-H460 lung): 10.5 µM
- TGI (NCI-H522 lung): 16.9 µM
- TGI (NCI/ADR-RES ovarian): 18.4 µM
- TGI (OVCAR-3 ovarian): 33.5 µM
- TGI (OVCAR-4 ovarian): 18.3 µM
- TGI (OVCAR-5 ovarian): 25.6 µM
- TGI (OVCAR-8 ovarian): 15.8 µM
- TGI (P388 leukemia): 3.66 µM
- TGI (P388/ADR leukemia): 5.17 µM
- TGI (RPMI-8226 leukemia): 13.5 µM
- TGI (RXF 393 renal): 20.4 µM
- TGI (SF-268 CNS): 22.2 µM
- TGI (SF-295 CNS): 19.7 µM
- TGI (SF-539 CNS): 14.9 µM
- TGI (SK-MEL-2 melanoma): 21.3 µM
- TGI (SK-MEL-28 melanoma): 20.1 µM
- TGI (SK-MEL-5 melanoma): 11.1 µM
- TGI (SK-OV-3 ovarian): 24.8 µM
- TGI (SN12C renal): 25.2 µM
- TGI (SN12K1 renal): 12.2 µM
- TGI (SNB-19 CNS): 33.7 µM
- TGI (SNB-75 CNS): 19.6 µM
- TGI (SNB-78 CNS): 31.4 µM
- TGI (SW-620 colon): 21 µM
- TGI (U251 CNS): 22.3 µM
- TGI (UACC-257 melanoma): 17.9 µM
- TGI (UACC-62 melanoma): 13.4 µM
- TGI (UO-31 renal): 11.4 µM
- TGI (XF 498 CNS): 10.2 µM
